Patent US20260274829A1, “NEW E3 UBIQUITIN LIGASE LIGAND, PROTEIN DEGRADATION AGENT AND USE THEREOF” (GLUETACS THERAPEUTICS (SHANGHAI) CO., LTD., priority 2023, published 2026)

Legend:
Type in all cases: cell-based
IKZF1 = molecular target: T1, IKZF1 (Homo sapiens, UniProt Q13422+Q96SW2); experiment: Western blot degradation of IKZF1 in hPBMC
T1 construct: endogenous in cells; host or cells: hPBMC
Summary of the method: (§1)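 Percent target remaining and DC50 derive from grayscale of Western bands in degrader-treated hPBMC, normalized to an internal control protein and compared with DMSO samples. Gels were SDS-PAGE, transferred onto nitrocellulose and blocked one hour at room temperature.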

WEE1 = molecular target: T2, WEE1 (Homo sapiens, UniProt P30291+Q96SW2); experiment: Western blot degradation of WEE1 in hPBMC
T2 construct: endogenous in cells; host or cells: hPBMC
Summary of the method: as §1

IKZF3 = molecular target: T3, IKZF3 (Homo sapiens, UniProt Q96SW2+Q9UKT9); experiment: Western blot degradation of IKZF3 in hPBMC
T3 construct: endogenous in cells; host or cells: hPBMC
T3 sequence (Q9UKT9 whole entry): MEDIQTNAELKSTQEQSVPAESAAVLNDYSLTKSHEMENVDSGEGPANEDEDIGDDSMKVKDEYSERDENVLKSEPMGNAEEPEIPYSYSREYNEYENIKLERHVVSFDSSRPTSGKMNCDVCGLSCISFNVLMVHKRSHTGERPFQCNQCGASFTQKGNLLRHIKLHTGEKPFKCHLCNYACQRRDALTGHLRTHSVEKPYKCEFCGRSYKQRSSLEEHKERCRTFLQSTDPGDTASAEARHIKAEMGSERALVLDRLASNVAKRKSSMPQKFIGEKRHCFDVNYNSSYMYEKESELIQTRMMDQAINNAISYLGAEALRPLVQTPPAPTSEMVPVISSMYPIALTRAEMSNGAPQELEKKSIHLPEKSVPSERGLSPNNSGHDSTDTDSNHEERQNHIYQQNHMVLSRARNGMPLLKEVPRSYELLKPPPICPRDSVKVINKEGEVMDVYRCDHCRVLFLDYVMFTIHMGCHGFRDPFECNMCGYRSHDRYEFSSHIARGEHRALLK
T3 sequence (Q96SW2 whole entry): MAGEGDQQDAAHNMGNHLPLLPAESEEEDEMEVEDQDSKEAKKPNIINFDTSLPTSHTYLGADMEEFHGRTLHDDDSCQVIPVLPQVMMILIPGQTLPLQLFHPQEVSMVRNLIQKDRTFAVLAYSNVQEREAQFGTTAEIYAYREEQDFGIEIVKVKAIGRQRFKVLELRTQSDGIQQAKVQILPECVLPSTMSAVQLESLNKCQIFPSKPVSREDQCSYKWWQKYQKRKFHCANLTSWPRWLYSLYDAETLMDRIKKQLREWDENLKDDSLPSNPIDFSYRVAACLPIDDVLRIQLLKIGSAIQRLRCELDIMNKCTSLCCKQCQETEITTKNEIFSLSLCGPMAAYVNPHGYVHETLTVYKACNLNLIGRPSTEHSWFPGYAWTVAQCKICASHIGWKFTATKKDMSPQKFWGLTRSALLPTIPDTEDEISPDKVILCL
T3 sequence (Q16531 whole entry partner): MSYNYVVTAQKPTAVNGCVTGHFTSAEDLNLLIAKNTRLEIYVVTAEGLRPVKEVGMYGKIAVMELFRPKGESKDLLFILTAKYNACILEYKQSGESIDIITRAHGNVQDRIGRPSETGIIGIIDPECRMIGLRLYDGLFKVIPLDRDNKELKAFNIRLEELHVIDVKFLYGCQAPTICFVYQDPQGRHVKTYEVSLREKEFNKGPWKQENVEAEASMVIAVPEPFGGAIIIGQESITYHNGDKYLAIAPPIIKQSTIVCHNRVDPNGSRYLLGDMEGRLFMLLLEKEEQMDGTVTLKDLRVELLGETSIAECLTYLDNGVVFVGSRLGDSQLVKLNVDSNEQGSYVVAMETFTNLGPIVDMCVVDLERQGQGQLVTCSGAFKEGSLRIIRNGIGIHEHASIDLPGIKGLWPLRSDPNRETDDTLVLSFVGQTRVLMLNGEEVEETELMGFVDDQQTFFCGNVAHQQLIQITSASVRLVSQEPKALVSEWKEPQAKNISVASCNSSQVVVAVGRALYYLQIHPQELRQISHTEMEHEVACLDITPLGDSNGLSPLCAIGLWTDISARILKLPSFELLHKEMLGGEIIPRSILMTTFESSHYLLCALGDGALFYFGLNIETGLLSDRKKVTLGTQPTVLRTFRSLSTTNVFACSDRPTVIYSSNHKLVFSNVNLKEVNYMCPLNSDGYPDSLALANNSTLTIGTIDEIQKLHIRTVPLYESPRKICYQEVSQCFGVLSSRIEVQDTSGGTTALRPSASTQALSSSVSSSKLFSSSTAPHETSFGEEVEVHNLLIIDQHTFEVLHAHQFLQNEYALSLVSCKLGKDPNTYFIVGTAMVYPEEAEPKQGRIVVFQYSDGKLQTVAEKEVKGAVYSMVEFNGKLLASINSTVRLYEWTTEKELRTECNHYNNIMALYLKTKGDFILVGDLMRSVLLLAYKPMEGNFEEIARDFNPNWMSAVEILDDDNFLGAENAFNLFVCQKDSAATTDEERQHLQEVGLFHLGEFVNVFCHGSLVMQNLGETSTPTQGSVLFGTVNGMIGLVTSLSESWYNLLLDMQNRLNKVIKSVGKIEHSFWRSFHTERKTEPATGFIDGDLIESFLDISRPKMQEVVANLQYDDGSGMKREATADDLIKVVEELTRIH
Summary of the method: as §1

CK1a = molecular target: T4, CK1a (Homo sapiens, UniProt P48729+Q96SW2); experiment: Western blot degradation of CK1a in hPBMC
T4 construct: endogenous in cells; host or cells: hPBMC
T4 sequence (P48729 whole entry): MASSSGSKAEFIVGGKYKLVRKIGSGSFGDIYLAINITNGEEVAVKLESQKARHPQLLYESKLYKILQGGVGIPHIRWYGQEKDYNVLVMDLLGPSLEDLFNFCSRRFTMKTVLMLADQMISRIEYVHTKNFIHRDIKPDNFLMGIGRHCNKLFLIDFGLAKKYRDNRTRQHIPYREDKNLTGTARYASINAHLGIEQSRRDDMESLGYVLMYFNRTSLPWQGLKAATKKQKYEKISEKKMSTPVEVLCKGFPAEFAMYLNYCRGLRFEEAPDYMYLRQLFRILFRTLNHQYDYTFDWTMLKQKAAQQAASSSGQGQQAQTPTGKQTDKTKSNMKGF
T4 sequence (Q96SW2 whole entry): as the sequence (Q96SW2 whole entry) above
T4 sequence (Q16531 whole entry partner): as the sequence (Q16531 whole entry partner) above
Summary of the method: as §1

IKZF2 = molecular target: T5, IKZF2 (Homo sapiens, UniProt Q96SW2+Q9UKS7); experiment: Western blot degradation of IKZF2 in hPBMC
T5 construct: endogenous in cells; host or cells: hPBMC
T5 sequence (Q9UKS7 whole entry): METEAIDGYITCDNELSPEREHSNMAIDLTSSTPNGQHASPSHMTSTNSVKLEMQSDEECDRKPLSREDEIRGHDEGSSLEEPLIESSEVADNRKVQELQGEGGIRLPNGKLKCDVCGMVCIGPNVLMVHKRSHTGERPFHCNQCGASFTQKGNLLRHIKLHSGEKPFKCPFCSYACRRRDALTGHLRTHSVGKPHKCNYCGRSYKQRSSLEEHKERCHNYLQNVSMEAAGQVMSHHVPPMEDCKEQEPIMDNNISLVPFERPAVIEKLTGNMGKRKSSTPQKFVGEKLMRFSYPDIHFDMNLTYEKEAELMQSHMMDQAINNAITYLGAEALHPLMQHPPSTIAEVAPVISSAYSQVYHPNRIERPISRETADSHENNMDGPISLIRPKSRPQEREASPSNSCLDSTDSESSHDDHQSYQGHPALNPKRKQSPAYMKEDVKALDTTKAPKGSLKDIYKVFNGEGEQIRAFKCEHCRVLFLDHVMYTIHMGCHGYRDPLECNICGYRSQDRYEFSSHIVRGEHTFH
T5 sequence (Q96SW2 whole entry): as the sequence (Q96SW2 whole entry) above
T5 sequence (Q16531 whole entry partner): as the sequence (Q16531 whole entry partner) above
Summary of the method: as §1

GSPT1 = molecular target: T6, GSPT1 (Homo sapiens, UniProt P15170+Q96SW2); experiment: Western blot degradation of GSPT1 in hPBMC
T6 construct: endogenous in cells; host or cells: hPBMC
T6 sequence (P15170 whole entry): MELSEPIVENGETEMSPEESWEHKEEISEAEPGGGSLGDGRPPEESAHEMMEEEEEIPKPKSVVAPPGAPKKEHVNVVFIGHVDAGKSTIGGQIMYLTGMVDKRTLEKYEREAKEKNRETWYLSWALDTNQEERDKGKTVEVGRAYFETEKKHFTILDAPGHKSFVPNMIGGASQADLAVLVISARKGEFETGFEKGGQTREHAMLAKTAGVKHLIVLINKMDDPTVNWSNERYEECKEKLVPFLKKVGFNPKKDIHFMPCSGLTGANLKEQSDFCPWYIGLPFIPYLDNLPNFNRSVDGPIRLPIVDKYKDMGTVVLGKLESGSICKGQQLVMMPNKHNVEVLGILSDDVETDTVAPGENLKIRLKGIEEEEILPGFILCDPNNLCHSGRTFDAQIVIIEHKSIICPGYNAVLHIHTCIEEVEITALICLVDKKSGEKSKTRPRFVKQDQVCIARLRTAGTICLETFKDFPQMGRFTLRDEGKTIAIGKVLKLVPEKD
T6 sequence (Q96SW2 whole entry): as the sequence (Q96SW2 whole entry) above
T6 sequence (Q16531 whole entry partner): as the sequence (Q16531 whole entry partner) above
Summary of the method: as §1

T1 sequence (Q13422 whole entry): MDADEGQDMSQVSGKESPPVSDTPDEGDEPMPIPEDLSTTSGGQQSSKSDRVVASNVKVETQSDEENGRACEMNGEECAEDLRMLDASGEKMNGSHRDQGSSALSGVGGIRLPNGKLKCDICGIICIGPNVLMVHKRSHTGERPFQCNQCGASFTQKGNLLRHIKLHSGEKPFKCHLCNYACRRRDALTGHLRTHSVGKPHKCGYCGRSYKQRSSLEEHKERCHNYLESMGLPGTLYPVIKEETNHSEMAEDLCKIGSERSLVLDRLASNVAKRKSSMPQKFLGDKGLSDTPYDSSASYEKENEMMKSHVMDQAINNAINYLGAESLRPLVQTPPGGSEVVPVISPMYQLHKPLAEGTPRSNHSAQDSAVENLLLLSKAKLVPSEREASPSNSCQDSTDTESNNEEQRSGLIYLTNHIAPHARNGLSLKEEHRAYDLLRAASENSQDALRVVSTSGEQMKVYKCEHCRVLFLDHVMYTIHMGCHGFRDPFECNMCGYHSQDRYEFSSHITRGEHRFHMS
T1 sequence (Q96SW2 whole entry): as the sequence (Q96SW2 whole entry) above
T1 sequence (Q16531 whole entry partner): as the sequence (Q16531 whole entry partner) above

Compound | Degradation of substrate protein IKZF1 (substrate protein remaining %) (IKZF1) | Degradation of substrate protein WEE1 (substrate protein remaining %) (WEE1) | Degradation of substrate protein IKZF3 (substrate protein remaining %) (IKZF3) | Degradation of substrate protein CK1a (substrate protein remaining %) (CK1a) | Degradation of substrate protein IKZF2 (substrate protein remaining %) (IKZF2) | Degradation of substrate protein GSPT1 (substrate protein remaining %) (GSPT1)
O=C1CCN(c2ccc(CCl)cn2)C(=O)N1 [GT-07009, 1-(5-(chloromethyl)pyridin-2-yl)dihydropyrimidine-2,4(1H,3H)-dione] | B (B is defined as substrate protein remaining % > 80%) | B (B is defined as substrate protein remaining % > 80%) | B (B is defined as substrate protein remaining % > 80%) | A (A is defined as 0% ≤ substrate protein remaining % ≤ 80%) | B (B is defined as substrate protein remaining % > 80%) | B (B is defined as substrate protein remaining % > 80%)
NCc1ccc(N2CCC(=O)NC2=O)cn1 [GT-07048, 1-(6-(aminomethyl)pyridin-3-yl)dihydropyrimidine-2,4(1H,3H)-dione] | A (A is defined as 0% ≤ substrate protein remaining % ≤ 80%) | B (B is defined as substrate protein remaining % > 80%) | A (A is defined as 0% ≤ substrate protein remaining % ≤ 80%) | A (A is defined as 0% ≤ substrate protein remaining % ≤ 80%) | A (A is defined as 0% ≤ substrate protein remaining % ≤ 80%) | A (A is defined as 0% ≤ substrate protein remaining % ≤ 80%)
O=Cc1ccc(NC2CCC(=O)NC2=O)cn1 (stereo not drawn) [GT-07640, 5-((2,6-dioxopiperidin-3-yl)amino)picolinaldehyde] | A (A is defined as 0% ≤ substrate protein remaining % ≤ 80%) | A (A is defined as 0% ≤ substrate protein remaining % ≤ 80%) | A (A is defined as 0% ≤ substrate protein remaining % ≤ 80%) | B (B is defined as substrate protein remaining % > 80%) | A (A is defined as 0% ≤ substrate protein remaining % ≤ 80%) | A (A is defined as 0% ≤ substrate protein remaining % ≤ 80%)
O=C1CCN(c2cc(CCl)ccn2)C(=O)N1 [GT-07078, 1-(4-(chloromethyl)pyridin-2-yl)dihydropyrimidine-2,4(1H,3H)-dione] | B (B is defined as substrate protein remaining % > 80%) | B (B is defined as substrate protein remaining % > 80%) | B (B is defined as substrate protein remaining % > 80%) | B (B is defined as substrate protein remaining % > 80%) | B (B is defined as substrate protein remaining % > 80%) | A (A is defined as 0% ≤ substrate protein remaining % ≤ 80%)
O=C1CCC(c2cc(CO)c(F)cn2)C(=O)N1 (stereo not drawn) [GT-07444, 3-(5-fluoro-4-(hydroxymethyl)pyridin-2-yl)piperidine-2,6-dione] | B (B is defined as substrate protein remaining % > 80%) | B (B is defined as substrate protein remaining % > 80%) | A (A is defined as 0% ≤ substrate protein remaining % ≤ 80%) | B (B is defined as substrate protein remaining % > 80%) | A (A is defined as 0% ≤ substrate protein remaining % ≤ 80%) | B (B is defined as substrate protein remaining % > 80%)
O=C1CCC(c2cncc(CCl)c2)C(=O)N1 (stereo not drawn) [GT-06991, 3-(5-(chloromethyl)pyridin-3-yl)piperidine-2,6-dione] | B (B is defined as substrate protein remaining % > 80%) | B (B is defined as substrate protein remaining % > 80%) | B (B is defined as substrate protein remaining % > 80%) | B (B is defined as substrate protein remaining % > 80%) | A (A is defined as 0% ≤ substrate protein remaining % ≤ 80%) | B (B is defined as substrate protein remaining % > 80%)
CC(C)(C)[Si](C)(C)OCc1ccc(NC2CCC(=O)NC2=O)cn1 (stereo not drawn) [GT-07445, 3-((6-(((tert-butyldimethylsilyl)oxy)methyl)pyridin-3-yl)amino)piperidine-2,6-dione] | A (A is defined as 0% ≤ substrate protein remaining % ≤ 80%) | A (A is defined as 0% ≤ substrate protein remaining % ≤ 80%) | B (B is defined as substrate protein remaining % > 80%) | A (A is defined as 0% ≤ substrate protein remaining % ≤ 80%) | B (B is defined as substrate protein remaining % > 80%) | A (A is defined as 0% ≤ substrate protein remaining % ≤ 80%)
O=C1CCC(Nc2ccc(CO)nn2)C(=O)N1 (stereo not drawn) [GT-07803, 3-((6-(hydroxymethyl)pyridazin-3-yl)amino)piperidine-2,6-dione] | A (A is defined as 0% ≤ substrate protein remaining % ≤ 80%) | B (B is defined as substrate protein remaining % > 80%) | A (A is defined as 0% ≤ substrate protein remaining % ≤ 80%) | B (B is defined as substrate protein remaining % > 80%) | A (A is defined as 0% ≤ substrate protein remaining % ≤ 80%) | B (B is defined as substrate protein remaining % > 80%)
O=C1CCC(Nc2ncccc2CO)C(=O)N1 (stereo not drawn) [GT-07197, 3-((3-(hydroxymethyl)pyridin-2-yl)amino)piperidine-2,6-dione] | B (B is defined as substrate protein remaining % > 80%) | B (B is defined as substrate protein remaining % > 80%) | B (B is defined as substrate protein remaining % > 80%) | A (A is defined as 0% ≤ substrate protein remaining % ≤ 80%) | B (B is defined as substrate protein remaining % > 80%) | A (A is defined as 0% ≤ substrate protein remaining % ≤ 80%)
O=C1CCC(c2ccc(CO)cn2)C(=O)N1 (stereo not drawn) [GT-07075, 3-(5-(hydroxymethyl)pyridin-2-yl)piperidine-2,6-dione] | B (B is defined as substrate protein remaining % > 80%) | B (B is defined as substrate protein remaining % > 80%) | A (A is defined as 0% ≤ substrate protein remaining % ≤ 80%) | B (B is defined as substrate protein remaining % > 80%) | A (A is defined as 0% ≤ substrate protein remaining % ≤ 80%) | A (A is defined as 0% ≤ substrate protein remaining % ≤ 80%)
O=C1CCC(Nc2ncncc2CO)C(=O)N1 (stereo not drawn) [GT-07727, 3-((5-(hydroxymethyl)pyrimidin-4-yl)amino)piperidine-2,6-dione] | A (A is defined as 0% ≤ substrate protein remaining % ≤ 80%) | A (A is defined as 0% ≤ substrate protein remaining % ≤ 80%) | A (A is defined as 0% ≤ substrate protein remaining % ≤ 80%) | B (B is defined as substrate protein remaining % > 80%) | A (A is defined as 0% ≤ substrate protein remaining % ≤ 80%) | B (B is defined as substrate protein remaining % > 80%)
O=Cc1ccnc(NC2CCC(=O)NC2=O)c1 (stereo not drawn) [GT-07553, 2-((2,6-dioxopiperidin-3-yl)amino)isonicotinaldehyde] | A (A is defined as 0% ≤ substrate protein remaining % ≤ 80%) | A (A is defined as 0% ≤ substrate protein remaining % ≤ 80%) | B (B is defined as substrate protein remaining % > 80%) | B (B is defined as substrate protein remaining % > 80%) | A (A is defined as 0% ≤ substrate protein remaining % ≤ 80%) | B (B is defined as substrate protein remaining % > 80%)
